We go through 26 compounds from patent US20230357179A1, “RAF KINASE INHIBITORS AND METHODS OF USE THEREOF” (Deciphera Pharmaceuticals, LLC, priority 2021, published 2023).

Experiment [1] has as its target T1, A-Raf kinase (Homo sapiens, UniProt P10398, Y301D/Y302D).
T1 construct: purchased Sigma
Nature of the experiment: Biochemical assay for A-Raf.1 (coupled pyruvate kinase/lactate dehydrogenase). Conditions: read-out: ARAF.1 IC50. Put shortly: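 IC50 values came from four-parameter sigmoidal fits of percent inhibition, using rates over the 4 to 5 h window of continuous A340 readings (6 h, 30° C). The coupled PK/LDH system tracked NADH oxidation during 5.55 nM A-Raf activity on 30.1 nM MEK at 1 mM ATP, buffer pH 7.5.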

The target in experiment [2] is T2, B-Raf kinase (Homo sapiens, UniProt P15056).
T2 construct: GST (N); purchased Sigma
Nature of the experiment: Biochemical assay for B-Raf.1 (coupled pyruvate kinase/lactate dehydrogenase). Conditions: read-out: BRAF.1 IC50. The method, boiled down: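 Reaction rates over the 4–5 h window of a continuous 6 h, 30 °C read were converted to percent inhibition and fitted for IC50. B-Raf (0.13 nM) phosphorylated 30.1 nM MEK with 1 mM ATP; ADP coupled via PK/LDH to NADH loss at 340 nm, 1% DMSO final.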

The subject of experiment [3] is H2405 cells. The experiment in a line: H2405 cell proliferation assay (1), resazurin, 96-well. Type of experiment: cell-based. Particulars: Homo sapiens, NCI-H2405, inhibition of cell proliferation. Put shortly: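 This is a resazurin viability readout (excitation 540 nm, emission 600 nm) taken 5-6 h after adding 440 μM resazurin solution, giving IC50 values.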
In general terms: Alamar Blue is a resazurin reagent that responds to reducing activity.

In experiment [4] the test system is WM3928 cells. Nature of the experiment: WM3928 cell proliferation assay (1), resazurin, 96-well. Particulars: inhibition of cell proliferation. The class given is cell-based. The method, boiled down: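 IC50 was derived from resazurin fluorescence (ex 540, em 600 nm) after a 6–7 h dye incubation. Before that, cells had 67–72 h of compound exposure at 37 °C, 5% CO2.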

T1 sequence (P10398 with tags, fused parts or gaps Y301D/Y302D): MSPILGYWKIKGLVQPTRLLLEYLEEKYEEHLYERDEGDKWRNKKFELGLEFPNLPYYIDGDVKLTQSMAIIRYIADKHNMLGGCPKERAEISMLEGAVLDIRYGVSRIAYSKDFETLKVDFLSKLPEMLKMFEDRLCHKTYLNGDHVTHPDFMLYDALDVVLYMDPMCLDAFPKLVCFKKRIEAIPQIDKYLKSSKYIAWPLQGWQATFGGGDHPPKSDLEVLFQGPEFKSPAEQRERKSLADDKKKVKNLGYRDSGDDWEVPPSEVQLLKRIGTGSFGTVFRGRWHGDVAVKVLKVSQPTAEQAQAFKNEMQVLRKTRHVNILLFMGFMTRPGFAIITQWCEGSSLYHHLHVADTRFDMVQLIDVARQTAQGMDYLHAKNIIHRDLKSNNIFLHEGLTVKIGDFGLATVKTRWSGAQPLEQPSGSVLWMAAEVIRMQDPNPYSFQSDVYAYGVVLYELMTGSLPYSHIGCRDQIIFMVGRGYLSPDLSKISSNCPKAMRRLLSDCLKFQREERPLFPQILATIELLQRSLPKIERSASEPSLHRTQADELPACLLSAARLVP
T2 sequence (P15056 416-766): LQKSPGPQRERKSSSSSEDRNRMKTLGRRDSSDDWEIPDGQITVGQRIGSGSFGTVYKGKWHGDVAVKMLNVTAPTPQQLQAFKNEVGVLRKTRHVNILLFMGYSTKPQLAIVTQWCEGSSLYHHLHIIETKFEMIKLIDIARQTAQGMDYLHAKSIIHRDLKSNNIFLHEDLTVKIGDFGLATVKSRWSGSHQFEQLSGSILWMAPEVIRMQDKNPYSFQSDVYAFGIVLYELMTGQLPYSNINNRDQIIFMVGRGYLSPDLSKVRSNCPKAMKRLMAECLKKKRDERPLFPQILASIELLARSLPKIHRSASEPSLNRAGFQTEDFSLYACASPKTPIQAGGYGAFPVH

For `Cc1cc(F)c(NC(=O)NCCC2(C(F)(F)F)CC2)cc1-c1cc(N2CCOCC2)nc(N2CCOCC2)c1` [Example 23], the IC50 was over 1000 nM in experiment [1], at most 100 nM in experiment [2], 100 to 500 nM in experiment [3] and 100 to 500 nM in experiment [4].

As to `Cc1ccc(NC(=O)N2CCC(C(F)(F)F)C2)cc1-c1cccc(-c2cc(NC(=O)C3CC3)ncn2)c1` (centres unmarked) [Example 73], the IC50 was 500 to 1000 nM in experiment [1], at most 100 nM in experiment [2], 100 to 500 nM in experiment [3] and at most 100 nM in experiment [4].

As for `Cc1cc(F)c(NC(=O)NCCC(C)(C)C#N)cc1-c1cccc(-c2ccnc(NC(=O)C3CC3)c2)c1` [Example 66], the IC50 in experiment [1] is over 1000 nM; in experiment [2], at most 100 nM; in experiment [3], 1000 to 10000 nM; in experiment [4], 100 to 500 nM.

For the compound `Cc1ccc(NC(=O)N2CC[C@H](C(F)(F)F)C2)cc1-c1cncc(-c2cc(NC(=O)C3CC3)ncn2)c1` [Example 195], the half-maximal inhibitory concentration (IC50) in experiment [1] was 500 to 1000 nM; in experiment [2], at most 100 nM; in experiment [3] it was 100 to 500 nM; in experiment [4], at most 100 nM.

In the case of `Cc1ccc(NC(=O)N2CC[C@@H](C)C2)cc1-c1cncc(-c2cc(NC(=O)C3CC3)ncn2)c1` [Example 219], the IC50 in experiment [1] was over 1000 nM; in experiment [2], at most 100 nM; in experiment [3], 100 to 500 nM; in experiment [4] it was 500 to 1000 nM.

Regarding `COC1(CCNC(=O)Nc2cnc(C)c(-c3cccc(-c4cc(NC(=O)C5CC5)ncn4)c3)c2)CC1` [Example 84], the half-maximal inhibitory concentration (IC50) in experiment [1] is over 1000 nM; in experiment [2] it was at most 100 nM; in experiment [3], 1000 to 10000 nM; in experiment [4] it was 500 to 1000 nM.

With `Cc1ncc(NC(=O)NCCC(C)(C)F)cc1-c1ccnc(-c2ccnc(NC(=O)C3CC3)c2)c1` [Example 75], the IC50 in experiment [1] was over 1000 nM; in experiment [2], at most 100 nM; in experiment [3], 1000 to 10000 nM; in experiment [4] it was 500 to 1000 nM.

As to `CNC(=O)c1cc(-c2cncc(-c3cc(NC(=O)N4CC[C@H](C(F)(F)F)C4)c(F)cc3C)c2)ccn1` [Example 214], the IC50 in experiment [1] was over 1000 nM; in experiment [2] it was 500 to 1000 nM; in experiment [3], 100 to 500 nM; in experiment [4] it was 1000 to 10000 nM.

With `COC(=O)Nc1cc(-c2cncc(-c3cc(NC(=O)N4CC[C@H](C(F)(F)F)C4)ccc3C)c2)ccn1` [Example 211], the 50% inhibitory concentration (IC50) in experiment [1] is over 1000 nM; in experiment [2] it was at most 100 nM; in experiment [3], 100 to 500 nM; in experiment [4], 100 to 500 nM.

With `Cc1cc(F)c(NC(=O)NCCC2(C)CC2)cc1-c1cc(OCC(C)(C)O)nc(-c2ccncc2)c1` [Example 34], the IC50 in experiment [1] is over 1000 nM; in experiment [2], at most 100 nM; in experiment [3], 100 to 500 nM; in experiment [4] it was 100 to 500 nM.

Regarding `Cc1ccc(NC(=O)N2CCC(CC(F)(F)F)C2)cc1-c1cncc(-c2cc(NC(=O)C3CC3)ncn2)c1` (centres unmarked) [Example 194], the concentration for half-maximal inhibition (IC50) is over 1000 nM in experiment [1], at most 100 nM in experiment [2], 100 to 500 nM in experiment [3] and at most 100 nM in experiment [4].

In the case of `Cc1cc(F)c(NC(=O)NCCC(C)(C)C#N)cc1-c1cc(N2CCOCC2)nc(N2CCOCC2)c1` [Example 22], the half-maximal inhibitory concentration (IC50) in experiment [1] was over 1000 nM; in experiment [2] it was 100 to 500 nM; in experiment [3], 1000 to 10000 nM; in experiment [4], 1000 to 10000 nM.

Consider `COC(=O)Nc1cc(-c2cnnc(-c3cc(NC(=O)N4CCC(CC(F)(F)F)C4)ccc3C)c2)ccn1` (centres unmarked) [Example 186], for which the 50% inhibitory concentration (IC50) in experiment [1] is over 1000 nM; in experiment [2] it was at most 100 nM; in experiment [3], 100 to 500 nM; in experiment [4] it was 500 to 1000 nM.

Turning to `COC(=O)Nc1cc(-c2cc(-c3cc(NC(=O)NCCC4(C)CC4)c(F)cc3C)cc(OCCO)n2)ccn1` [Example 77], the 50% inhibitory concentration (IC50) is over 1000 nM in experiment [1], at most 100 nM in experiment [2], 100 to 500 nM in experiment [3] and at most 100 nM in experiment [4].

Take `Cc1ccc(NC(=O)N2CCC(F)(F)C2)cc1-c1cncc(-c2cc(NC(=O)C3CC3)ncn2)c1` [Example 209]: the IC50 was over 1000 nM in experiment [1], at most 100 nM in experiment [2], 1000 to 10000 nM in experiment [3] and 1000 to 10000 nM in experiment [4].

Take `COC(=O)Nc1cc(-c2cncc(-c3cc(NC(=O)N4CCCCCC4)ccc3C)c2)ccn1` [Example 202]: the IC50 is over 1000 nM in experiment [1], 500 to 1000 nM in experiment [2], 1000 to 10000 nM in experiment [3] and 1000 to 10000 nM in experiment [4].

As to `Cc1ccc(NC(=O)N2CC[C@H](C(F)(F)F)C2)cc1-c1cncc(-c2ccnc(NC(=O)C3CC3)c2)c1` [Example 197], the concentration for half-maximal inhibition (IC50) in experiment [1] was 500 to 1000 nM; in experiment [2], at most 100 nM; in experiment [3] it was 100 to 500 nM; in experiment [4] it was 100 to 500 nM.

In the case of `Cc1cc(F)c(NC(=O)NCCC2(C)CC2)cc1-c1ccnc(-c2ccnc3c2CC(=O)N3)c1` [Example 79], the IC50 in experiment [1] was over 1000 nM; in experiment [2], at most 100 nM; in experiment [3] it was 500 to 1000 nM; in experiment [4] it was 100 to 500 nM.

Regarding `COC(C)(C)CCNC(=O)Nc1cc(-c2nccc(-c3ccnc(NC(=O)C4CC4)c3)n2)c(C)cc1F` [Example 83], the IC50 in experiment [1] was 500 to 1000 nM; in experiment [2], at most 100 nM; in experiment [3], 100 to 500 nM; in experiment [4], 100 to 500 nM.

`COC(C)(C)CCNC(=O)Nc1cnc(C)c(-c2nccc(-c3ccnc(NC(=O)C4CC4)c3)n2)c1` [Example 82]: the half-inhibitory concentration (IC50) in experiment [1] was over 1000 nM; in experiment [2] it was 100 to 500 nM; in experiment [3], 1000 to 10000 nM; in experiment [4], 1000 to 10000 nM.

In the case of `Cc1cc(F)c(NC(=O)NC2CC(C)(C)C2)cc1-c1cc(OCCO)nc(-c2ccnc(NC(=O)C3CC3)c2)c1` [Example 80], the IC50 is over 1000 nM in experiment [1], at most 100 nM in experiment [2], at most 100 nM in experiment [3] and at most 100 nM in experiment [4].

On to `COC(=O)Nc1cc(-c2cncc(-c3cc(NC(=O)N4CCCCC4)ccc3C)c2)ccn1` [Example 208], for which the IC50 is over 1000 nM in experiment [1], over 1000 nM in experiment [2], 500 to 1000 nM in experiment [3] and 500 to 1000 nM in experiment [4].

`Cc1cc(F)c(NC(=O)N2CC[C@H](C(F)(F)F)C2)cc1-c1cncc(-c2cc(NC(=O)C3CC3)ncn2)c1` [Example 216]: the half-maximal inhibitory concentration (IC50) in experiment [1] is 100 to 500 nM; in experiment [2], at most 100 nM; in experiment [3] it was 100 to 500 nM; in experiment [4], at most 100 nM.

As to `Cc1cc(F)c(NC(=O)NCCC2(C)CC2)cc1-c1cc(OCCO)nc(-c2ccnc(NC(=O)C3CC3)c2)c1` [Example 76], the 50% inhibitory concentration (IC50) was 100 to 500 nM in experiment [1], at most 100 nM in experiment [2], at most 100 nM in experiment [3] and at most 100 nM in experiment [4].

Regarding `Cc1ccc(NC(=O)N2CC[C@@H](C(C)C)C2)cc1-c1cncc(-c2cc(NC(=O)C3CC3)ncn2)c1` [Example 217], the 50% inhibitory concentration (IC50) in experiment [1] was 100 to 500 nM; in experiment [2], at most 100 nM; in experiment [3] it was 100 to 500 nM; in experiment [4], at most 100 nM.

In the case of `Cc1ccc(NC(=O)N2CC[C@@H](C(F)(F)F)C2)cc1-c1cncc(-c2cc(NC(=O)C3CC3)ncn2)c1` [Example 210], the IC50 in experiment [1] is 500 to 1000 nM; in experiment [2], at most 100 nM; in experiment [3], 100 to 500 nM; in experiment [4] it was 100 to 500 nM.

For orientation: IC50 means the point on the concentration scale where inhibition reaches its midpoint.
